Consider eight compounds from ChEMBL document CHEMBL5500330, “Novel thiazolidin-4-one benzenesulfonamide hybrids as PPARγ agonists: Design, synthesis and in vivo anti-diabetic evaluation” (Eur J Med Chem, 2024).

The nature of data set [1]: Acute toxicity in male Albino mouse assessed as mortality at upto 2000 mg/kg, po measured upto 7 days. The format is organism-based. As to conditions: in vivo, 168 h, time < 7 day.
Data set [2] deals with T1, Peroxisome proliferator-activated receptor gamma (Homo sapiens, UniProt P37231).
T1 sequence (P37231 whole entry): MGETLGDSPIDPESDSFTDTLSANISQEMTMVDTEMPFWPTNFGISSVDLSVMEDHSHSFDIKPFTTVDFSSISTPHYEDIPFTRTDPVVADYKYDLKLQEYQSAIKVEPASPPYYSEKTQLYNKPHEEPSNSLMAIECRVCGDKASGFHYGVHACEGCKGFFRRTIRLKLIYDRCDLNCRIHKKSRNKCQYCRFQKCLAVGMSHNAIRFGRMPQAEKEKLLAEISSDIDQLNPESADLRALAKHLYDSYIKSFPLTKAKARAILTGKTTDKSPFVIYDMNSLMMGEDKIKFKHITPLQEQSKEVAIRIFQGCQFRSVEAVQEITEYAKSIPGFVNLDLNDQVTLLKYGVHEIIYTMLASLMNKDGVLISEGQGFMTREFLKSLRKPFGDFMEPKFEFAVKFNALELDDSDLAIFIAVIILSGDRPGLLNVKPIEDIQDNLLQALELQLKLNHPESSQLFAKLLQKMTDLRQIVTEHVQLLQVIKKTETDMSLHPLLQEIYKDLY
Kind of data set: Agonist activity at human PPAR gamma by luciferase reporter gene assay.

In data set [3] the target is T2, Peroxisome proliferator-activated receptor delta (Homo sapiens, UniProt Q03181).
T2 sequence (Q03181 whole entry): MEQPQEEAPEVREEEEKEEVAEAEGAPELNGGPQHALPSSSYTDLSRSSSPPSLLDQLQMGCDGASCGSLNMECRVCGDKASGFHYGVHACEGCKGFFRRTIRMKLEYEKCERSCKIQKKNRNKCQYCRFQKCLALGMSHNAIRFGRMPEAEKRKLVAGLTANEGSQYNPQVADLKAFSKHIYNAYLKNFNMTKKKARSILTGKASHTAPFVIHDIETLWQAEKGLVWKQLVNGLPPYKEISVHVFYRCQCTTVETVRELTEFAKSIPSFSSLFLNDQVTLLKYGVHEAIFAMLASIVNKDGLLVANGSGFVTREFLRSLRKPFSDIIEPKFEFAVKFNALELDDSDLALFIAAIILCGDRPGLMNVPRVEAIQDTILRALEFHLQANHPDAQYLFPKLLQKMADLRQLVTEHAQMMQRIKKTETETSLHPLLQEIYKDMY
Kind of data set: Agonist activity at human PPAR delta by luciferase reporter gene assay.

For data set [4], the target named is T3, Peroxisome proliferator-activated receptor alpha (Homo sapiens, UniProt Q07869).
T3 sequence (Q07869 whole entry): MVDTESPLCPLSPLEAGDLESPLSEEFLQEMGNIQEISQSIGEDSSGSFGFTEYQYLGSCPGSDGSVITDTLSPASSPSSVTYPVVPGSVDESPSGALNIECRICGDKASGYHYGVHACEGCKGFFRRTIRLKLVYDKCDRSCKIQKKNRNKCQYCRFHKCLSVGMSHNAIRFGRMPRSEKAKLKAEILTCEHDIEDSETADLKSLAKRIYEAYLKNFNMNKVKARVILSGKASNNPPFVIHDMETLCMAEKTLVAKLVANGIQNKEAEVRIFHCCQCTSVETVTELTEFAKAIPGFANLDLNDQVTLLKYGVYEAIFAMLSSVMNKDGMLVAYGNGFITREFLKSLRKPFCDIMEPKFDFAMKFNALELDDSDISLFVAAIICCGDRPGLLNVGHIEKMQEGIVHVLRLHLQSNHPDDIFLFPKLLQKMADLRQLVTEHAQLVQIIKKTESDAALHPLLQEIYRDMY
Kind of data set: Agonist activity at human PPAR alpha by luciferase reporter gene assay.

Data set [5] has as its system Rattus norvegicus. As to the kind of experiment: Antidiabetic activity against STZ induced Albino Wistar rat diabetic model assessed as hypoglycaemic effect at 36 mg/kg, po administered as single dose and measured after 15 days. The format is functional. As to conditions: time 15 day.
Data set [6] deals with Rattus norvegicus. As to the kind of experiment: Antidiabetic activity against NA-STZ induced Wistar rat model of type 2 diabetes assessed as increase in C-peptide level at 36 mg/kg, po measured after 21 days by ELISA method relative to control. As to conditions: time 21 day. It is filed as functional.
The subject of data set [7] is Rattus norvegicus. Kind of data set: Antidiabetic activity against NA-STZ induced Wistar rat model of type 2 diabetes assessed as decrease in blood glucose level at 36 mg/kg, po measured after 21 days relative to control. It is filed as functional. Details: scale not given: the % may be the effect or the level left. As to conditions: time 21 day.

As for `COc1cc(/C=C2\SC(Nc3ccc(S(N)(=O)=O)cc3)=NC2=O)ccc1OCCc1ccccc1`, the Activity entry in data set [1] is given as “Toxic”. Further, the concentration giving a half-maximal response (EC50) – broadly, the concentration at which the effect is half-maximal – in data set [2] was 11.1 µM; in data set [3], 16.3 µM.

With `COc1cc(/C=C2\SC(Nc3ccc(S(N)(=O)=O)cc3)=NC2=O)ccc1OCc1ccc(C)cc1`, the figures for the EC50 in data set [4] and in data set [3] were 40.9 µM and 48.1 µM, respectively. The Activity result in data set [1] is given as “Toxic”.

Take `COc1cccc(COc2cc(/C=C3\SC(Nc4ccc(S(N)(=O)=O)cc4)=NC3=O)ccc2OC)c1`: the EC50 was 22.7 µM in data set [4] and 2.94 µM in data set [2]. Also, in data set [1], the Activity result is listed as “Non-Toxic”.

With `COc1cccc(COc2ccc(/C=C3\SC(Nc4ccc(S(N)(=O)=O)cc4)=NC3=O)cc2OC)c1`, the Activity entry in data set [1] was “Non-Toxic”. Further, the EC50 in data set [2] worked out at 3.98 µM; in data set [3], 15.4 µM.

On to `NS(=O)(=O)c1ccc(NC2=NC(=O)/C(=C/c3ccc(OCc4ccc(Cl)cc4)cc3)S2)cc1`, for which the Activity result in data set [1] is “Toxic”. This compound had an EC50 in data set [3] of 35.2 µM.

In the case of `NS(=O)(=O)c1ccc(-n2cc(/C=C3\SC(=O)NC3=O)c(-c3ccc4ccccc4c3)n2)cc1`, the Activity with Rattus norvegicus [5] was 134.1 mg/dL.

Consider `CC(C)(Oc1ccc(CCNC(=O)c2ccc(Cl)cc2)cc1)C(=O)O` [BEZAFIBRATE], for which the EC50 in data set [2] stood at 83.3 µM; in data set [3] it was 25.9 µM.

With `CCc1ccc(CCOc2ccc(CC3SC(=O)NC3=O)cc2)nc1` (stereo not given) [PIOGLITAZONE], the Activity in the data set on Rattus norvegicus [6] came to 38.6%; in the data set on Rattus norvegicus [5], 132.2 mg/dL; with Rattus norvegicus [7], 35%.
